The values below come from US20090181963A1, “3H-[1,2,3]TRIAZOLO[4,5-D]PYRIMIDINE COMPOUNDS, THEIR USE AS mTOR KINASE AND PI3 KINASE INHIBITORS, AND THEIR [sequence]” (Wyeth, priority 2008, published 2009).

SMILES strings stand for the structures. Where only a bound is given, the exact number is not on record here.

One test addresses PI3 Kinase γ (Homo sapiens, UniProt P48736). Nature of the test: Fluorescence polarization assay for PI3K (PI3 Kinase γ). Type of test: biochemical. Particulars: diC8-PI(4,5)P2 substrate, 25 μM ATP, one hour at 25° C. Background: Polarisation of emitted light reports the rotation of a fluorescent probe.
In the next test the target is PI3 Kinase α (Homo sapiens, UniProt P42336). The test can be described thus: Fluorescence polarization assay for PI3K (PI3 Kinase α). Type of test: biochemical. Particulars: diC8-PI(4,5)P2 substrate, 25 μM ATP, one hour at 25° C.
Chain of PI3 Kinase α (P42336 whole entry): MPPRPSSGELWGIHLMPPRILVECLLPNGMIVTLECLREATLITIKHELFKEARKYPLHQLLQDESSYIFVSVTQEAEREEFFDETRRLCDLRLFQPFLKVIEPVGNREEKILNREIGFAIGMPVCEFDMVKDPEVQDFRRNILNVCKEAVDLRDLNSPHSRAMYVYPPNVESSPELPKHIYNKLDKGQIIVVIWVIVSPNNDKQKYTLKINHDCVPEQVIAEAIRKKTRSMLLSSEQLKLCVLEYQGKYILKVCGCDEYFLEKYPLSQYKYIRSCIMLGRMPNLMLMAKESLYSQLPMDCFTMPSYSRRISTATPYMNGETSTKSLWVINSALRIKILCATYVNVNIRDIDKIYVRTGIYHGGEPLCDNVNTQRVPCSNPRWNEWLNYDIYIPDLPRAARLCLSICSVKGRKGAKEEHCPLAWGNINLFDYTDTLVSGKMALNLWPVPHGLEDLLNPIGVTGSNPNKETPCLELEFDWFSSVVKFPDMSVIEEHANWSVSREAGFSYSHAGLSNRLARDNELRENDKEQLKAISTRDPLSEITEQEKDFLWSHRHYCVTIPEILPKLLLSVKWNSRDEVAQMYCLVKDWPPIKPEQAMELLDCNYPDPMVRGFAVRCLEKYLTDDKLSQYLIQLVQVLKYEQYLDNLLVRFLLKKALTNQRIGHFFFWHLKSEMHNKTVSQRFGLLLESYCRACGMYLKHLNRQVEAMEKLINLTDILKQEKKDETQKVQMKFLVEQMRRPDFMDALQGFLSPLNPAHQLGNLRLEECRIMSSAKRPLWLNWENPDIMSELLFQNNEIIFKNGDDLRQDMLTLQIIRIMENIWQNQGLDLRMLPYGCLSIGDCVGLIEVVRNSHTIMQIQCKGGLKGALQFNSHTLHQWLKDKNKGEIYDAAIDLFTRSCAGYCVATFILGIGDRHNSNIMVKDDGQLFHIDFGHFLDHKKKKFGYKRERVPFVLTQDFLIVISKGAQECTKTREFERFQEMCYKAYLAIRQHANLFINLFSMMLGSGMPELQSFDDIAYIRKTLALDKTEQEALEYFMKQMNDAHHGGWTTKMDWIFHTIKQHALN
Chain of PI3 Kinase α (P27986 whole entry partner): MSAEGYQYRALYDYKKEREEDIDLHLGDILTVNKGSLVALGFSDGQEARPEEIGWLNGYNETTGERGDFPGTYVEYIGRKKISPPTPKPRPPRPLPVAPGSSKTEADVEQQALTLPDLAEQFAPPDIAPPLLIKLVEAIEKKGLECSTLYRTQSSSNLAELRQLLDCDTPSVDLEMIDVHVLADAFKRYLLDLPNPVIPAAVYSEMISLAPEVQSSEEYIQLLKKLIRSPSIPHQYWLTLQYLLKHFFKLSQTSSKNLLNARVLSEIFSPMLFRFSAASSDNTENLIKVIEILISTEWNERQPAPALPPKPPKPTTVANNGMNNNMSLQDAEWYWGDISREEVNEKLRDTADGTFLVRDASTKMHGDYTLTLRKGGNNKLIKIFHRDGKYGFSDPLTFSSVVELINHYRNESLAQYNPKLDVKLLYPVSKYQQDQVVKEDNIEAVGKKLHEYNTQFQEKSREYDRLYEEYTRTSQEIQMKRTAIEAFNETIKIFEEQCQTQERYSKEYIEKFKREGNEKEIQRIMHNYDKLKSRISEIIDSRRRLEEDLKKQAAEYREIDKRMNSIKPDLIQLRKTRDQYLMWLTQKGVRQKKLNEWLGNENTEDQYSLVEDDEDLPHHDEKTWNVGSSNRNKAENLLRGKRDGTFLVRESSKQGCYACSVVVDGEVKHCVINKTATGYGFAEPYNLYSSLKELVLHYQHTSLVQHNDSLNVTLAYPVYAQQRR

Chain of PI3 Kinase γ (P48736 whole entry): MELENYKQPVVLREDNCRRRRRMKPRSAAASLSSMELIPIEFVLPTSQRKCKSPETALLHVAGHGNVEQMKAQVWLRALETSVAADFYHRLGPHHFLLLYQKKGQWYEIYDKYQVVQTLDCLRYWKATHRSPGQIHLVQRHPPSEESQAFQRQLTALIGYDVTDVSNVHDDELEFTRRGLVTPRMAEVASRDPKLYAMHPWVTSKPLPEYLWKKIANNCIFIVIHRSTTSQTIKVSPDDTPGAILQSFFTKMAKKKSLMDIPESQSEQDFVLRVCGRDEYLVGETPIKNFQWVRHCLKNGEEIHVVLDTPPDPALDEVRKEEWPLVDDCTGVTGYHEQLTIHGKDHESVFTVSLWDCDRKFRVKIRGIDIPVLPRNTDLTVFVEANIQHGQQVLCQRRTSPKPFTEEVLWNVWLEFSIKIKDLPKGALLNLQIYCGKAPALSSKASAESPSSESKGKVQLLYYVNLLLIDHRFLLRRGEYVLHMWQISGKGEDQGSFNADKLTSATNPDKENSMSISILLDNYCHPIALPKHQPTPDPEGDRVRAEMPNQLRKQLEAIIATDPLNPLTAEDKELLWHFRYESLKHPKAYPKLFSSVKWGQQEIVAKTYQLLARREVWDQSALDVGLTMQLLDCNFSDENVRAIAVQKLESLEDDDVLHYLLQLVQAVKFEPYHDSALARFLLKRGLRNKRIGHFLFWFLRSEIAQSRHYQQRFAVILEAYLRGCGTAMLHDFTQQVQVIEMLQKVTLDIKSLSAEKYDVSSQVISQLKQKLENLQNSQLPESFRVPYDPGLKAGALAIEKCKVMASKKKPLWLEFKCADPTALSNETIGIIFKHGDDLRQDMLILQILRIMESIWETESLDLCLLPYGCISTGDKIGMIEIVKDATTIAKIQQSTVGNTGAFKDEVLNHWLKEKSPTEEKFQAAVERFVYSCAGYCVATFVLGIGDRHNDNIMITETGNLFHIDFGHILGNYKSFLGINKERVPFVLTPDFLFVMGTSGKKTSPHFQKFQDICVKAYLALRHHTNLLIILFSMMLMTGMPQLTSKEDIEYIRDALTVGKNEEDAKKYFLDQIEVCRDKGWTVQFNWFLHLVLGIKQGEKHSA

In the case of `CCn1nnc2c(N3CCOCC3)nc(-c3ccc(NC(=O)Nc4ccc(C(=O)NCCN5CCCCC5)cc4)cc3)nc21` [Example 56, 4-({[4-(3-ethyl-7-morpholin-4-yl-3H-[1,2,3]triazolo[4,5-d]pyrimidin-5-yl)phenyl]carbamoyl}amino)-N-(2-piperidin-1-ylethyl)benzamide], the results for the IC50 at PI3 Kinase γ and on PI3 Kinase α were 11 nM and 1.7 nM, respectively.

For `CN(C)CCCOc1ccc(CN2CCC(n3nnc4c(N5CCOCC5)nc(-c5cncc(O)c5)nc43)CC2)cc1` [Example 17, 5-[3-(1-{4-[3-(dimethylamino)propoxy]benzyl}piperidin-4-yl)-7-morpholin-4-yl-3H-[1,2,3]triazolo[4,5-d]pyrimidin-5-yl]pyridin-3-ol], the IC50 against PI3 Kinase γ is 370 nM; against PI3 Kinase α, 217 nM.

As to `CC(C)n1nnc2c(N3CCOCC3)nc(-c3ccc(NC(=O)Nc4cnoc4)cc3)nc21` [Example 94, 1-[4-(3-isopropyl-7-morpholin-4-yl-3H-[1,2,3]triazolo[4,5-d]pyrimidin-5-yl)-phenyl]-3-isoxazol-4-yl-urea], the IC50 at PI3 Kinase γ is 132 nM; against PI3 Kinase α, 34.5 nM.

Turning to `O=C(Nc1ccc(-c2nc(N3CCOCC3)c3nnn(CC(F)(F)F)c3n2)cc1)Nc1cncnc1` [Example 136, 1-{4-[7-morpholin-4-yl-3-(2,2,2-trifluoroethyl)-3H-[1,2,3]triazolo[4,5-d]pyrimidin-5-yl]phenyl}-3-pyrimidin-5-ylurea], the half-maximal inhibitory concentration (IC50) on PI3 Kinase γ amounted to 88 nM; at PI3 Kinase α, 38 nM.

As for `CCn1nnc2c(N3CCOCC3)nc(-c3ccc(NC(=O)Nc4ccc(C(=O)N5CCN[C@H](C)C5)cc4)cc3)nc21` [Example 54, 1-[4-(3-ethyl-7-morpholin-4-yl-3H-[1,2,3]triazolo[4,5-d]pyrimidin-5-yl)phenyl]-3-(4-{[(3R)-3-methylpiperazin-1-yl]carbonyl}phenyl)urea], the figures for the IC50 on PI3 Kinase γ and at PI3 Kinase α were 7 nM and below 1.8 nM, respectively.

`Oc1cccc(-c2nc(N3CCOCC3)c3nnn(C4CCN(Cc5ccccc5)CC4)c3n2)c1` [Example 1, 3-[3-(1-benzylpiperidin-4-yl)-7-morpholin-4-yl-3H-[1,2,3]triazolo[4,5-d]pyrimidin-5-yl]phenol]: the IC50 turned out to be 667 nM against PI3 Kinase γ and 121 nM on PI3 Kinase α.

For `O=C(O)c1ccc(Cn2nnc3c(N4CCOCC4)nc(-c4cccc(O)c4)nc32)cc1` [Example 242, 4-{[5-(3-hydroxyphenyl)-7-morpholin-4-yl-3H-[1,2,3]triazolo[4,5-d]pyrimidin-3-yl]methyl}benzoic acid], the IC50 against PI3 Kinase γ is 842 nM; against PI3 Kinase α, 509 nM.

With `CCNC(=O)c1ccc(Cn2nnc3c(N4CCOCC4)nc(-c4cccc(O)c4)nc32)cc1` [Example 219, N-ethyl-4-{[5-(3-hydroxyphenyl)-7-morpholin-4-yl-3H-[1,2,3]triazolo[4,5-d]pyrimidin-3-yl]methyl}benzamide], the concentration for half-maximal inhibition (IC50) against PI3 Kinase γ is 1840 nM; at PI3 Kinase α it was 260 nM.

Take `O=C(Nc1ccc(-c2nc(N3CCOCC3)c3nnn(C4CCNCC4)c3n2)cc1)Nc1cccnc1` [Example 163, 1-[4-(7-morpholin-4-yl-3-piperidin-4-yl-3H-[1,2,3]triazolo[4,5-d]pyrimidin-5-yl)phenyl]-3-pyridin-3-ylurea]: the half-maximal inhibitory concentration (IC50) against PI3 Kinase γ worked out at 49.5 nM; at PI3 Kinase α, 13.5 nM.

`Cc1ccc(CN2CCC(n3nnc4c(N5CCOCC5)nc(-c5ccc(NC(=O)NCCN(C)C)cc5)nc43)CC2)s1` [Example 158, 1-(2-(dimethylamino)ethyl)-3-(4-(3-(1-((5-methylthiophen-2-yl)methyl)piperidin-4-yl)-7-morpholino-3H-[1,2,3]triazolo[4,5-d]pyrimidin-5-yl)phenyl)urea]: the concentration for half-maximal inhibition (IC50) amounted to 342 nM at PI3 Kinase γ and 74.5 nM on PI3 Kinase α.

As for `CC(C)(C)OC(=O)N1CCC(n2nnc3c(N4CCOCC4)nc(-c4ccc(NC(=O)Nc5ccc(F)cc5)cc4)nc32)CC1` [Example 165, tert-butyl 4-[5-(4-{[(4-fluorophenyl)carbamoyl]amino}phenyl)-7-morpholin-4-yl-3H-[1,2,3]triazolo[4,5-d]pyrimidin-3-yl]piperidine-1-carboxylate], the half-maximal inhibitory concentration (IC50) at PI3 Kinase γ was found to be 3580 nM; against PI3 Kinase α it was 151 nM.

Take `CC(C)n1nnc2c(N3CCOCC3)nc(-c3ccc(NC(=O)Nc4ccc(C(N)=O)cc4)cc3)nc21` [Example 93, 4-{3-[4-(3-isopropyl-7-morpholin-4-yl-3H-[1,2,3]triazolo[4,5-d]pyrimidin-5-yl)-phenyl]-ureido}-benzamide]: the IC50 against PI3 Kinase γ was determined as 18 nM; on PI3 Kinase α it was 2.5 nM.

Take `CCNC(=O)c1ccc(NC(=O)Nc2ccc(-c3nc(N4CCOCC4)c4nnn(CC)c4n3)cc2)cc1` [Example 64, N-ethyl-4-({[4-(3-ethyl-7-morpholin-4-yl-3H-[1,2,3]triazolo[4,5-d]pyrimidin-5-yl)phenyl]carbamoyl}amino)benzamide]: the IC50 came to 15.5 nM at PI3 Kinase γ and 3.3 nM against PI3 Kinase α.

On to `NC(=O)Cn1nnc2c(N3CCOCC3)nc(-c3cccc(CO)c3)nc21` [Example 237, 2-{5-[3-(hydroxymethyl)phenyl]-7-morpholin-4-yl-3H-[1,2,3]triazolo[4,5-d]pyrimidin-3-yl}acetamide], for which the IC50 on PI3 Kinase γ stood at 2590 nM; at PI3 Kinase α, 460 nM.

For the compound `OCc1cccc(-c2nc(N3CCOCC3)c3nnn(C4CCNCC4)c3n2)c1` [Example 176, [3-(7-morpholin-4-yl-3-piperidin-4-yl-3H-[1,2,3]triazolo[4,5-d]pyrimidin-5-yl)phenyl]methanol], the figures for the IC50 at PI3 Kinase γ and against PI3 Kinase α were 164 nM and 23.7 nM, respectively.

With `CC(C)n1nnc2c(N3CCOCC3)nc(-c3ccc(NC(=O)Nc4ccncc4)cc3)nc21` [Example 82, 1-[4-(3-isopropyl-7-morpholin-4-yl-3H-[1,2,3]triazolo[4,5-d]pyrimidin-5-yl)-phenyl]-3-pyridin-4-yl-urea], the values for the concentration for half-maximal inhibition (IC50) at PI3 Kinase γ and on PI3 Kinase α were 21.5 nM and 5 nM, respectively.

In the case of `OCc1cccc(-c2nc(N3CCOCC3)c3nnn(C4CCN(Cc5ccccc5)CC4)c3n2)c1` [Example 177, {3-[3-(1-benzylpiperidin-4-yl)-7-morpholin-4-yl-3H-[1,2,3]triazolo[4,5-d]pyrimidin-5-yl]phenyl}methanol], the half-maximal inhibitory concentration (IC50) on PI3 Kinase γ is 435 nM; against PI3 Kinase α, 83.5 nM.

`O=C(Nc1ccc(-c2nc(N3CCOCC3)c3nnn(CC(F)(F)F)c3n2)cc1)Nc1ccsc1` [Example 142, 1-{4-[7-morpholin-4-yl-3-(2,2,2-trifluoroethyl)-3H-[1,2,3]triazolo[4,5-d]pyrimidin-5-yl]phenyl}-3-(3-thienyl)urea]: the IC50 at PI3 Kinase γ is 20 nM; on PI3 Kinase α, 4 nM.

Consider `CCn1nnc2c(N3CCOCC3)nc(-c3ccc(N)c(OC)c3)nc21` [Example 175, 4-(3-ethyl-7-morpholin-4-yl-3H-[1,2,3]triazolo[4,5-d]pyrimidin-5-yl)-2-methoxyaniline], for which the IC50 at PI3 Kinase γ came out at 9110 nM; against PI3 Kinase α, 1410 nM.

Turning to `O=C(Nc1ccccc1)Nc1ccc(-c2nc(N3CCOCC3)c3nnn(CC4CN(Cc5ccc(F)cc5)C4)c3n2)cc1` [Example 192, 1-[4-(3-{[1-(4-fluorobenzyl)azetidin-3-yl]methyl}-7-morpholin-4-yl-3H-[1,2,3]triazolo[4,5-d]pyrimidin-5-yl)phenyl]-3-phenylurea], the IC50 against PI3 Kinase γ is 549 nM; on PI3 Kinase α, 148 nM.

In the case of `CC(=O)NCCn1nnc2c(N3CCOCC3)nc(-c3cccc(O)c3)nc21` [Example 7, N-{2-[5-(3-hydroxyphenyl)-7-morpholin-4-yl-3H-[1,2,3]triazolo[4,5-d]pyrimidin-3-yl]ethyl}acetamide], the half-maximal inhibitory concentration (IC50) came out at 406 nM against PI3 Kinase γ and 171 nM against PI3 Kinase α.

For the compound `CN(CCNC(=O)Nc1ccc(-c2nc(N3CCOCC3)c3nnn(CC(F)(F)F)c3n2)cc1)C(=O)OC(C)(C)C` [Example 139, tert-butyl methyl{2-[({4-[7-morpholin-4-yl-3-(2,2,2-trifluoroethyl)-3H-[1,2,3]triazolo[4,5-d]pyrimidin-5-yl]phenyl}carbamoyl)amino]ethyl}carbamate], the IC50 at PI3 Kinase γ stood at 1500 nM; on PI3 Kinase α, 318 nM.

For the compound `O=C(Nc1ccncc1)Nc1ccc(-c2nc(N3CCOCC3)c3nnn(C4CCOCC4)c3n2)cc1` [Example 198, 1-{4-[7-morpholin-4-yl-3-(tetrahydro-2H-pyran-4-yl)-3H-[1,2,3]triazolo[4,5-d]pyrimidin-5-yl]phenyl}-3-pyridin-4-ylurea], the IC50 against PI3 Kinase γ turned out to be 43 nM; against PI3 Kinase α it was 10 nM.

As to `Cc1ccc(CN2CCC(n3nnc4c(N5CCOCC5)nc(-c5cncc(O)c5)nc43)CC2)s1` [Example 21, 5-(3-{1-[(5-methyl-2-thienyl)methyl]piperidin-4-yl}-7-morpholin-4-yl-3H-[1,2,3]triazolo[4,5-d]pyrimidin-5-yl)pyridin-3-ol], the IC50 against PI3 Kinase γ amounted to 240 nM; on PI3 Kinase α, 66 nM.

For `CC(=O)NCCn1nnc2c(N3CCOCC3)nc(-c3cccc(CO)c3)nc21` [Example 8, N-(2-{5-[3-(hydroxymethyl)phenyl]-7-morpholin-4-yl-3H-[1,2,3]triazolo[4,5-d]pyrimidin-3-yl}ethyl)acetamide], the IC50 worked out at 196 nM on PI3 Kinase γ and 86 nM against PI3 Kinase α.

For `CN1CCC(n2nnc3c(N4CCOCC4)nc(-c4ccc(NC(=O)Nc5cccnc5)cc4)nc32)CC1` [Example 164, 1-{4-[3-(1-methylpiperidin-4-yl)-7-morpholin-4-yl-3H-[1,2,3]triazolo[4,5-d]pyrimidin-5-yl]phenyl}-3-pyridin-3-ylurea], the IC50 at PI3 Kinase γ is 147 nM; at PI3 Kinase α it was 22 nM.

`CCn1nnc2c(N3CCOC[C@@H]3C)nc(-c3ccc(NC(=O)Nc4cccnc4)cc3)nc21` [Example 72, (S)-1-(4-(3-ethyl-7-(3-methylmorpholino)-3H-[1,2,3]triazolo[4,5-d]pyrimidin-5-yl)phenyl)-3-(pyridin-3-yl)urea]: the IC50 on PI3 Kinase γ was determined as 88.5 nM; against PI3 Kinase α, 8 nM.

Turning to `CC(C)n1nnc2c(N3CCOCC3)nc(-c3ccc(NC(=O)Nc4cc[nH]c4)cc3)nc21` [Example 95, 1-[4-(3-isopropyl-7-morpholin-4-yl-3H-[1,2,3]triazolo[4,5-d]pyrimidin-5-yl)-phenyl]-3-(1H-pyrrol-3-yl)-urea], the results for the IC50 on PI3 Kinase γ and on PI3 Kinase α were 91 nM and 33.7 nM, respectively.

Broadly, the IC50 is the point on the concentration scale where inhibition reaches its midpoint. Low values mean greater potency in that assay, high ones weaker potency in that assay.
